In patent publication US6391887B1, “3,4-Dihydroquinoline derivatives as nitrogen monoxide synthase (NOS) inhibitors” (Schering Aktiengesellschaft, priority 1998, dated 2002):

Biological target: bNOS (UniProt P29475)
Assay: bNOS inhibition (method of Bredt and Snyder)
Format: biochemical
Excerpt: The NOS-inhibitory action of the compounds of Formula (I) and their physiologically compatible salts can be determined according to the methods by Bredt and Snyder in Proc. Natl. Acad. Sci. USA (1989) 86, 9030-9033.

| IC50 | SMILES |
| --- | --- |
| 1400 nM | NC1=Nc2cc(N3CCOCC3)ccc2C2CCCC12 (centres unmarked) [Example 21, 4-Amino-7-(4-morpholinyl)-2,3,3a,9b-tetrahydro-1H-cyclopenta[c]quinoline] |
| 1100 nM | COC(=O)CCc1ccc2c(c1)N=C(N)C1CCCC21 (centres unmarked) [Example 22, 4-Amino-7-(methoxycarbonylethyl)-2,3,3a,9b-tetrahydro-1H-cyclopenta[c]quinoline] |
